Experimental data published in patent US20170216399A1, “COMPOSITIONS, METHODS AND USES FOR PROTECTING WHITE BLOOD CELLS FROM SUPPRESSION OR DEATH” (LOS ANGELES BIOMEDICAL RESEARCH INSTITUTE AT HARBO-UCLA …, priority 2014, published 2017).
Marks after values point to notes of the source that are not given here. Ends that are not written are not given here.

Assays:
cells = conditions: HN mutant compared with HN; cited from earlier work
[1] = mouse, in vivo
Procedure: (§1) Mice were injected with heparin (1300 IU/kg BW, ip) 15 min before sacrifice by sodium pentobarbital (200 mg/kg BW IP). Body weight (BW) was recorded at autopsy. Blood samples were collected from the right ventricle of each mouse immediately after death and used for complete blood count using an automated cell counter (VetScanHM2, ABAXIS, Union City, Calif.). Plasma was separated and stored at −20° C. for subsequent HNG, IGF-1 and IGFBP-1 measurements by specific and sensitive ELISA assays as previously described (Chin et al., Endocrinology. 2013; 154:3739-44; Hwang et al, Growth Horm IGF Res 2008; 18: 65-74).
(§2) Twenty-five young adult (12-week-old) male mice (C57BL/6J) were used for this experiment in which 5 mice were used as control and 20 mice of each were intravenously inoculated via the tail vein with 1×10^5 murine B16 melanoma cells. 20 tumor-bearing mice were randomly divided into 4 groups with 5 mice in each group received 1) no treatment; 2) HNG alone; 3) CP alone; and 4) a combination treatment with the doses and duration described above.

[2] = mouse, in vivo; remark: listed apart in the source
white blood cells [3] = format: in vivo; conditions: CP 200 mg IP single dose, melanoma-bearing mice (FIG. 2)
Procedure: The effect of a potent HN analog HNG (HN-S14G) with or without cyclophosphamide (CP) in a mouse melanoma with lung metastasis model was studied. Five mice were used as control (Con) and 40 mice were inoculated intravenously with B16 murine melanoma cells. Of these mice five received no further treatment (NT). A week later the remaining 35 mice (n=5 per group) were treated for additional 2 weeks with: • 1) HNG 0.05 mg/KG body weight (BW) daily IP injection for 2 weeks; • 2) HNG 0.5 mg mg/Kg BW daily IP injection for 2 weeks; • 3) HNG 5 mg/Kg BW daily IP injection for 2 weeks; • 4) a single CP (200 mg IP single dose) injection+HNG 0.05 mg/KG body weight (BW) daily IP injection for 2 weeks; • 5) a single CP (200 mg IP single dose) injection+HNG 0.5 mg mg/Kg BW daily IP injection for 2 weeks; • 6) a single CP (200 mg IP single dose) injection HNG 0.5 mg mg/Kg BW daily IP injection for 2 weeks; • 7) a single CP (200 mg IP single dose) injection+HNG 5 mg mg/Kg BW daily IP injection.
All mice were sacrificed three weeks after tumor inoculation and two weeks after CP/HNG treatment. Blood was obtained for the measurement of white blood cell (WBC) count by a Coulter Counter.

[4] = system: red blood cell or platelet; assay: Red blood cell and platelet counts in B16 tumor-bearing mice
Procedure: as §1, §2

IGF-1 [5] = assay: Plasma IGF-1 levels (ELISA) in B16 tumor-bearing mice; format: in vivo, mouse; conditions: treatment alone, tumor-bearing mice (FIG. 3B)
Procedure: as §1, §2

peripheral leucocytes = assay: Peripheral leucocytes among treatment groups of healthy mice (Table 7); format: in vivo, mouse; conditions: mean ± SEM
Procedure: (§3) Body weight (BW) was recorded at autopsy.

[6] = system: murine B16 melanoma cells; assay: Lung melanoma metastases in B16 tumor-bearing mice; format: in vivo, mouse; conditions: treatment alone vs non-treated tumor-bearing mice
From the text: In this study the tumor loading dose was 1×10^5 B16 cells per mouse to examine the effects of HNG on peripheral blood leucocytes, plasma IGF-1 and IGFBP-1 levels while confirming its additive or synergistic effect on CP-induced suppression of lung melanoma metastases. Twenty-five young adult (12-week-old) male mice (C57BL/6J) were used for this experiment in which 5 mice were used as control and 20 mice of each were intravenously inoculated via the tail vein with 1×10^5 murine B16 melanoma cells. 20 tumor-bearing mice were randomly divided into 4 groups with 5 mice in each group received 1) no treatment; 2) HNG alone; 3) CP alone; and 4) a combination treatment with the doses and duration described above.

IGF-1 [7] = assay: Plasma IGF-1 levels among groups in healthy mice (Table 6); format: in vivo, mouse; conditions: mean ± SEM
Procedure: as §3

[8] = system: peripheral blood leucocytes
Procedure: as §1, §2

IGFBP-1 = assay: Plasma IGFBP-1 levels among groups in healthy mice (Table 6); format: in vivo, mouse; conditions: mean ± SEM
Procedure: as §3

germ cells = conditions: cited from earlier work
white blood cells [9] = format: in vivo
Procedure: as §3
The effect of a potent HN analog HNG (HN-S14G) (5mg/KG/day, IP) with and without concomitant cyclophosphamide (CP, 200 mg IP) treatment was administered to 4 adult healthy mice in each group. Another four mice served as controls. Two days after treatment, the animals were killed and their peripheral blood cells were collected and the blood cell counts were assessed by a blood cell counter.

[10] = during in vivo treatment with CP (Drumond, et al., 2011)

HN-S7A: MAPRGFACLLLLTSEIDLPVKRRA (SEQ ID NO: 24); Ser7 to Ala
Cytoprotective Action (cells): Not effective, prevents

HN-L12A: HN mutant, Leu12 to Ala (MAPRGFSCLLLATSEIDLPVKRRA; Humanin; UniProt Q8IVG9 1-24, looked up, variant L12A)
Cytoprotective Action (cells): HN antagonist, forms

HN-F6A: MAPRGASCLLLLTSEIDLPVKRRA (SEQ ID NO: 22); Phe6 to Ala
Cytoprotective Action (cells): Similar/more effective

HN-C8A: Cys8 to Ala; MAPRGFSALLLLTSEIDLPVKRRA (SEQ ID NO: 42)
Cytoprotective Action (cells): Not effective, prevents

MAPRGFSCLLLLTGEIDLPVKRRA [HNG]
plasma HNG levels [1]: increased
HNG (ng/ml) [2]: 80.8 ± 7.8^b ng/ml

O=P1(N(CCCl)CCCl)NCCCO1 (stereo not shown) [CP, cyclophosphamide monohydrate]
WBC count, fraction of control values (white blood cells [3]): about ⅓
platelet counts [4]: no significant decreases
red blood cell counts [4]: no significant decreases
plasma IGF-1 levels (IGF-1 [5]): significantly suppressed
Granulocytes (10^6/ml) (peripheral leucocytes): 0.2 ± 0.02^b 10^6/ml
Lymphocytes (10^6/ml) (peripheral leucocytes): 0.07 ± 0.01^b 10^6/ml
Monocytes (10^6/ml) (peripheral leucocytes): 0.01 ± 0.01^b 10^6/ml
Total WBC (10^6/ml) (peripheral leucocytes): 0.3 ± 0.02^b 10^6/ml
number of metastatic tumors in the lungs [6]: significantly decreased
IGF-1 (ng/ml) (IGF-1 [7]): 182.4 ± 10.5^c ng/ml
number of white blood cells ([8]; CP alone vs non-treated tumor-bearing mice (FIG. 4A)): significantly suppressed
granulocytes ([8]; CP alone vs non-treated tumor-bearing mice (FIG. 4B)): significantly suppressed
monocytes ([8]; CP alone vs non-treated tumor-bearing mice (FIG. 4C)): significantly suppressed
lymphocytes ([8]; CP alone vs non-treated tumor-bearing mice (FIG. 4D)): significantly suppressed
IGFBP-1 (ng/ml) (IGFBP-1): 7.4 ± 1.3^b ng/ml
differentiated germ cells of mice (germ cells; [10]): eliminated
undifferentiated germ cells remained (germ cells; [10]): about half
germ cells regenerated from undifferentiated stem cells (germ cells; once CP treatment was stopped (Drumond, et al., 2011)): about 64%
granulocyte count in the blood, of baseline value (white blood cells [9]; CP 200 mg IP alone, two days after CP treatment (FIG. 1B)): about 25%
WBC, fraction of the baseline counts (white blood cells [9]; CP 200 mg IP alone, two days after treatment (FIG. 1A)): about ⅕

HN: MAPRGFSCLLLLTSEIDLPVKRRA (SEQ ID NO: 1); 24-amino acid mitochondrial derived peptide
total number of white blood cells (WBC) (white blood cells [9]; HNG 5mg/KG/day IP alone, adult healthy mice, two days after treatment, vs controls (FIG. 1A)): increased slightly but significantly

HN-C8P: MAPRGFSPLLLLTSEIDLPVKRRA (SEQ ID NO: 25); Cys8 to Pro
Cytoprotective Action (cells): Not effective, blocks
